How the values were obtained:
[1] = tested on: Beet Armyworm (Spodoptera exigua) ("BAW"); experiment: Bioassay on beet armyworm (BAW), 128-well diet tray assay; type: in vivo; settings: Table ABC (PC), activity rating class, read-out: BAW (Biological Results, Insect species)
Summary of the method: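 Percent mortality, averaged across eight wells, was read after five to seven days at 25° C. under 14:10 light-dark. Each well held one to five second-instar larvae on artificial diet that had been treated with 50 μg/cm^2 compound in 90:10 acetone-water and dried.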

[2] = tested on: Cabbage Looper (Trichoplusia ni) ("CL"); experiment: Bioassay on cabbage looper (CL), 128-well diet tray assay; type: in vivo; settings: Table ABC (PC), activity rating class, read-out: CL (Biological Results, Insect species)
Summary of the method: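 Percent mortality, averaged across eight replicate wells, was read after five to seven days at 25 °C under a 14:10 photoperiod. Each well held one to five second-instar T. ni on diet carrying a dried 50 μg/cm^2 dose applied in acetone-water 90:10.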

Row | Compound | pest or weed control at 50 µg/cm2 [1] [%] | pest or weed control at 50 µg/cm2 [2] [%]
1 | CCc1cccc(C)c1NC(=S)NC(=O)NCCc1cccc(-c2ncn(-c3ccc(OC(F)(F)F)cc3)n2)c1 [PC83, 1-[(2-ethyl-6-methyl-phenyl)carbamothioyl]-3-[2-[3-[1-[4-(trifluoromethoxy)phenyl]-1H-1,2,4-triazol-3-yl]phenyl]ethyl]urea] | 50 to 100 | 50 to 100
2 | Cc1ccccc1NC(=S)NC(=O)NCCCc1ccc(-c2ncn(-c3ccc(OC(F)(F)F)cc3)n2)cc1 [PC92, 1-(o-tolylcarbamothioyl)-3-[3-[4-[1-[4-(trifluoromethoxy)phenyl]-1H-1,2,4-triazol-3-yl]phenyl]propyl]urea] | 50 to 100 | 50 to 100
3 | CCc1ccccc1NC(=S)NC(=O)NCCCc1ccc(-c2ncn(-c3ccc(OC(F)(F)F)cc3)n2)cc1 [PC93, 1-[(2-ethylphenyl)carbamothioyl]-3-[3-[4-[1-[4-(trifluoromethoxy)phenyl]-1H-1,2,4-triazol-3-yl]phenyl]propyl]urea] | 50 to 100 | 50 to 100
4 | CC(C)c1ccccc1NC(=S)NC(=O)NCCCc1ccc(-c2ncn(-c3ccc(OC(F)(F)F)cc3)n2)cc1 [PC94, 1-[(2-isopropylphenyl)carbamothioyl]-3-[3-[4-[1-[4-(trifluoromethoxy)phenyl]-1H-1,2,4-triazol-3-yl]phenyl]propyl]urea] | 50 to 100 | 50 to 100
5 | CCc1cccc(C)c1NC(=S)NC(=O)NCCCc1ccc(-c2ncn(-c3ccc(OC(F)(F)F)cc3)n2)cc1 [PC101, 1-[(2-ethyl-6-methyl-phenyl)carbamothioyl]-3-[3-[4-[1-[4-(trifluoromethoxy)phenyl]-1H-1,2,4-triazol-3-yl]phenyl]propyl]urea] | 50 to 100 | 50 to 100
6 | CCc1ccccc1NC(=S)NC(=O)NCCCc1cccc(-c2ncn(-c3ccc(OC(F)(F)F)cc3)n2)c1 [PC119, 1-[(2-ethylphenyl)carbamothioyl]-3-[3-[3-[1-[4-(trifluoromethoxy)phenyl]-1H-1,2,4-triazol-3-yl]phenyl]propyl]urea] | 50 to 100 | 50 to 100
7 | CC(C)c1ccccc1NC(=S)NC(=O)NCCCc1cccc(-c2ncn(-c3ccc(OC(F)(F)F)cc3)n2)c1 [PC120, 1-[(2-isopropylphenyl)carbamothioyl]-3-[3-[3-[1-[4-(trifluoromethoxy)phenyl]-1H-1,2,4-triazol-3-yl]phenyl]propyl]urea] | 50 to 100 | 50 to 100
8 | Cc1ccc(C(C)C)c(NC(=S)NC(=O)NCCCc2cccc(-c3ncn(-c4ccc(OC(F)(F)F)cc4)n3)c2)c1 [PC124, 1-[(2-isopropyl-5-methyl-phenyl)carbamothioyl]-3-[3-[3-[1-[4-(trifluoromethoxy)phenyl]-1H-1,2,4-triazol-3-yl]phenyl]propyl]urea] | 50 to 100 | 50 to 100
9 | CCCc1ccc(C)cc1NC(=S)NC(=O)NCCCc1cccc(-c2ncn(-c3ccc(OC(F)(F)F)cc3)n2)c1 [PC125, 1-[(5-methyl-2-propyl-phenyl)carbamothioyl]-3-[3-[3-[1-[4-(trifluoromethoxy)phenyl]-1H-1,2,4-triazol-3-yl]phenyl]propyl]urea] | 50 to 100 | 50 to 100
10 | CCc1cccc(C)c1NC(=S)NC(=O)NCCCc1cccc(-c2ncn(-c3ccc(OC(F)(F)F)cc3)n2)c1 [PC127, 1-[(2-ethyl-6-methyl-phenyl)carbamothioyl]-3-[3-[3-[1-[4-(trifluoromethoxy)phenyl]-1H-1,2,4-triazol-3-yl]phenyl]propyl]urea] | 50 to 100 | 50 to 100
11 | Cc1ccc(NC(=S)NC(=O)NCCCc2cccc(-c3ncn(-c4ccc(OC(F)(F)F)cc4)n3)c2)c(C(C)C)c1 [PC128, 1-[(2-isopropyl-4-methyl-phenyl)carbamothioyl]-3-[3-[3-[1-[4-(trifluoromethoxy)phenyl]-1H-1,2,4-triazol-3-yl]phenyl]propyl]urea] | 50 to 100 | 50 to 100
12 | CC(C)c1cc(F)ccc1NC(=S)NC(=O)NCCCc1cccc(-c2ncn(-c3ccc(OC(F)(F)F)cc3)n2)c1 [PC129, 1-[(4-fluoro-2-isopropyl-phenyl)carbamothioyl]-3-[3-[3-[1-[4-(trifluoromethoxy)phenyl]-1H-1,2,4-triazol-3-yl]phenyl]propyl]urea] | 50 to 100 | 50 to 100
13 | COc1ccc(NC(=S)NC(=O)NCCCc2cccc(-c3ncn(-c4ccc(OC(F)(F)F)cc4)n3)c2)c(C)c1 [PC131, 1-[(4-methoxy-2-methyl-phenyl)carbamothioyl]-3-[3-[3-[1-[4-(trifluoromethoxy)phenyl]-1H-1,2,4-triazol-3-yl]phenyl]propyl]urea] | 50 to 100 | 50 to 100
14 | Cc1ccccc1NC(=S)NC(=O)NCCCCc1ccc(-c2ncn(-c3ccc(OC(F)(F)F)cc3)n2)cc1 [PC144, 1-(o-tolylcarbamothioyl)-3-[4-[4-[1-[4-(trifluoromethoxy)phenyl]-1H-1,2,4-triazol-3-yl]phenyl]butyl]urea] | 50 to 100 | 50 to 100
15 | CCc1ccccc1NC(=S)NC(=O)NCCCCc1ccc(-c2ncn(-c3ccc(OC(F)(F)F)cc3)n2)cc1 [PC145, 1-[(2-ethylphenyl)carbamothioyl]-3-[4-[4-[1-[4-(trifluoromethoxy)phenyl]-1H-1,2,4-triazol-3-yl]phenyl]butyl]urea] | 50 to 100 | 50 to 100
16 | CC(C)c1ccccc1NC(=S)NC(=O)NCCCCc1ccc(-c2ncn(-c3ccc(OC(F)(F)F)cc3)n2)cc1 [PC146, 1-[(2-isopropylphenyl)carbamothioyl]-3-[4-[4-[1-[4-(trifluoromethoxy)phenyl]-1H-1,2,4-triazol-3-yl]phenyl]butyl]urea] | 50 to 100 | 50 to 100
17 | Cc1ccc(C(C)C)c(NC(=S)NC(=O)NCCCCc2ccc(-c3ncn(-c4ccc(OC(F)(F)F)cc4)n3)cc2)c1 [PC150, 1-[(2-isopropyl-5-methyl-phenyl)carbamothioyl]-3-[4-[4-[1-[4-(trifluoromethoxy)phenyl]-1H-1,2,4-triazol-3-yl]phenyl]butyl]urea] | 50 to 100 | 50 to 100
18 | Cc1cccc(C)c1NC(=S)NC(=O)NCCCCc1ccc(-c2ncn(-c3ccc(OC(F)(F)F)cc3)n2)cc1 [PC152, 1-[(2,6-dimethylphenyl)carbamothioyl]-3-[4-[4-[1-[4-(trifluoromethoxy)phenyl]-1H-1,2,4-triazol-3-yl]phenyl]butyl]urea] | 50 to 100 | 50 to 100
19 | Cc1ccc(NC(=S)NC(=O)NCCCCc2ccc(-c3ncn(-c4ccc(OC(F)(F)F)cc4)n3)cc2)c(C(C)C)c1 [PC154, 1-[(2-isopropyl-4-methyl-phenyl)carbamothioyl]-3-[4-[4-[1-[4-(trifluoromethoxy)phenyl]-1H-1,2,4-triazol-3-yl]phenyl]butyl]urea] | 50 to 100 | 50 to 100
20 | CC(C)c1cc(F)ccc1NC(=S)NC(=O)NCCCCc1ccc(-c2ncn(-c3ccc(OC(F)(F)F)cc3)n2)cc1 [PC155, 1-[(4-fluoro-2-isopropyl-phenyl)carbamothioyl]-3-[4-[4-[1-[4-(trifluoromethoxy)phenyl]-1H-1,2,4-triazol-3-yl]phenyl]butyl]urea] | 50 to 100 | 50 to 100
21 | COc1ccc(C(C)C)c(NC(=S)NC(=O)NCCCCc2ccc(-c3ncn(-c4ccc(OC(F)(F)F)cc4)n3)cc2)c1 [PC156] | 50 to 100 | 50 to 100
22 | Cc1ccc(C(C)C)c(NC(=S)NC(=O)NCCCCc2ccc(-c3ncn(-c4ccc(C(F)(F)F)cc4)n3)cc2)c1 [PC159, 1-[(2-isopropyl-5-methyl-phenyl)carbamothioyl]-3-[4-[4-[1-[4-(trifluoromethyl)phenyl]-1H-1,2,4-triazol-3-yl]phenyl]butyl]urea] | 50 to 100 | 50 to 100
23 | Cc1ccc(C(C)C)c(NC(=S)NC(=O)NCCC#Cc2ccc(-c3ncn(-c4ccc(OC(F)(F)F)cc4)n3)cc2)c1 [PC160, 1-[(2-isopropyl-5-methyl-phenyl)carbamothioyl]-3-[4-[4-[1-[4-(trifluoromethoxy)phenyl]-1H-1,2,4-triazol-3-yl]phenyl]but-3-ynyl]urea] | 50 to 100 | 50 to 100
24 | Cc1ccccc1NC(=S)NC(=O)NCCCCc1cccc(-c2ncn(-c3ccc(OC(F)(F)F)cc3)n2)c1 [PC170, 1-(o-tolylcarbamothioyl)-3-[4-[3-[1-[4-(trifluoromethoxy)phenyl]-1H-1,2,4-triazol-3-yl]phenyl]butyl]urea] | 0 to 50 | 50 to 100
25 | CCc1ccccc1NC(=S)NC(=O)NCCCCc1cccc(-c2ncn(-c3ccc(OC(F)(F)F)cc3)n2)c1 [PC171, 1-[(2-ethylphenyl)carbamothioyl]-3-[4-[3-[1-[4-(trifluoromethoxy)phenyl]-1H-1,2,4-triazol-3-yl]phenyl]butyl]urea] | 0 to 50 | 50 to 100
26 | CC(C)c1ccccc1NC(=S)NC(=O)NCCCCc1cccc(-c2ncn(-c3ccc(OC(F)(F)F)cc3)n2)c1 [PC172, 1-[(2-isopropylphenyl)carbamothioyl]-3-[4-[3-[1-[4-(trifluoromethoxy)phenyl]-1H-1,2,4-triazol-3-yl]phenyl]butyl]urea] | 50 to 100 | 50 to 100
